# Results from US8202844B2, “Indole antiviral compositions and methods” (The Regents of the University of Michigan, priority 2003, dated 2012).
# Like-named read-outs stand apart in the source and are kept apart here.
# Assays:
# [1] = Cytotoxicity in stationary HFF cells, microscopic inspection; assay type: cell-based; conditions: human, read-out: 50% Inhibitory Concentration, HFF Cytotoxicity
# Method: (§1) Cytotoxicity assays. Two different assays were used for routine cytotoxicity testing. (i) Cytotoxicity produced in stationary HFF cells was determined by microscopic inspection of cells not affected by the virus used in plaque assays (Turk, et al., Agents Chemother. 1987, 31, 544-550, herein incorporated by reference). (ii) The effect of compounds during two population doublings of KB cells was determined by crystal violet staining and spectrophotometric quantitation of dye eluted from stained cells as described earlier (Prichard, et al., Antiviral Res. 1991, 35, 1060-1065, herein incorporated by reference). Briefly, 96-well cluster dishes were planted with KB cells at 3000-5000 cells per well. After overnight incubation at 37° C., test compound was added in quadruplicate at six to eight concentrations. Plates were incubated at 37° C. for 48 h in a CO2 incubator, rinsed, fixed with 95% ethanol, and stained with 0.1% crystal violet. Acidified ethanol was added and plates read at 570 nm in a spectrophotometer designed to read 96-well ELISA assay plates.
# (§2) Data Analysis. Dose response relationships were used to quantitate drug effects by linear regression of the percent inhibition of parameters derived in the preceding assays against log10 drug concentrations. Fifty percent inhibitory concentrations (IC50's) were calculated from the linear portions of the regression lines. Samples containing positive controls (acyclovir for HSV-1, GCV for HCMV, and 2-acetylpyridine thiosemicarbazone for cytotoxicity) were used in all assays.
# [2] = test system: human cytomegalovirus (HCMV); assay: HCMV plaque reduction assay; assay type: cell-based, HCMV Towne strain in HFF cells; conditions: for IC50: read-out: 50% Inhibitory Concentration, HCMV Activity
# Method: (§3) Virological procedures. The Towne strain, plaque-purified isolate Po, of HCMV was kindly provided by Dr. Mark Stinski, University of Iowa. The KOS strain of HSV-1 was used in most experiments and was provided by Dr. Sandra K. Weller, University of Connecticut. Stock HCMV was prepared by infecting HFF cells at a multiplicity of infection (m.o.i.) of <0.01 plaque-forming units (p.f.u.) per cell as detailed previously (Turk, et al., Agents Chemother. 1987, 31, 544-550, herein incorporated by reference). High titer HSV-1 stocks were prepared by infecting KB cells at an m.o.i. of <0.1 also as detailed previously (see Turk et al.). Virus titers were determined using monolayer cultures of HFF cells for HCMV and monolayer cultures of BSC-1 cells for HSV-1 as described earlier (Prichard, et al., J. Virol. Methods 1990, 28, 101-106, herein incorporated by reference). Briefly, HFF or BSC-1 cells were planted as described above in 96-well cluster dishes and incubated overnight at 37° C. The next day cultures were inoculated with HCMV or HSV-1 and serially diluted 1:3 across the remaining eleven columns of the 96-well plate. After virus adsorption the inoculum was replaced with fresh medium and cultures were incubated for seven days for HCMV, two or three days for HSV-1. Plaques were enumerated under 20-fold magnification in wells having the dilution which gave 5 to 20 plaques per well. Virus titers were calculated according to the following formula: Titer (p.f.u./mL)=number of plaques×5×3^n; where n represents the n^th dilution of the virus used to infect the well in which plaques were enumerated.
# HCMV plaque reduction assay. HFF cells in 24-well cluster dishes were infected with approximately 100 p.f.u. of HCMV per cm^2 cell sheet using the procedures detailed above. Following virus adsorption, the compounds, prepared as 10 mg/mL stock solutions in DMSO were diluted with growth medium and were added to duplicate wells in four to eight selected concentrations. After incubation at 37° C. for 7-10 days, cell sheets were fixed, stained with crystal violet and microscopic plaques enumerated as described above. Drug effects were calculated as a percentage of reduction in number of plaques in the presence of each drug concentration compared to the number observed in the absence of drug.
# as §2
# [3] = Cytotoxicity in growing KB cells, crystal violet staining; assay type: cell-based; conditions: human, read-out: 50% Inhibitory Concentration, KB Cytotoxicity
# Method: as §1, §2
# [4] = test system: herpes simplex virus type 1 (HSV-1); assay: HSV-1 ELISA; assay type: cell-based, HSV-1 KOS strain in BSC-1 cells
# Method: as §3
# HSV-1 ELISA. An ELISA was employed (Prichard, et al., Antiviral Res. 1990, 14, 181-206, herein incorporated by reference) to detect HSV-1. Ninety-six-well cluster dishes were planted with 10,000 BSC-1 cells per well in 200 μL per well of MEM(E) plus 10% calf serum. After overnight incubation at 37° C., selected drug concentrations in quadruplicate and HSV-1 at a concentration of 100 p.f.u./well were added. Following a 3-day incubation at 37° C., medium was removed, plates were blocked, rinsed, and horse radish peroxidase conjugated rabbit anti-HSV-1 antibody was added. Following removal of the antibody containing solution, plates were rinsed, and then developed by adding 150 μl per well of a solution of tetramethylbenzidine as substrate. The reaction was stopped with H2SO4 and absorbance was read at 450 and 570 nm. Drug effects were calculated as a percentage of the reduction in absorbance in the presence of each drug concentration compared to absorbance obtained with virus in the absence of drug.
# as §2
# [5] = test system: human cytomegalovirus (HCMV); conditions: cited from earlier work; for activity against HCMV: literature reports
# uninfected host cells = conditions: cited from earlier work
# [6] = test system: human cytomegalovirus (HCMV); assay: Literature activity against HCMV replication in vitro; assay type: cell-based
# [7] = Good et al.; cited from earlier work
# [8] = Human alphaherpesvirus 1, BSC-1, read-out: 50% Inhibitory Concentration, HSV-1 Activity
# [9] = stationary human foreskin fibroblasts (HFF cells)
# [10] = Human betaherpesvirus 5, plaque reduction in HFF cells
# [11] = Human alphaherpesvirus 1, ELISA in BSC-1 cells, read-out: 50% Inhibitory Concentration, HSV-1 Activity
compound,measurement,setting,value
"C[C@H]1O[C@@H](n2c(Cl)c(C=O)c3cc(Cl)c(Cl)cc32)[C@H](O)[C@@H]1O [Compound 4.97, 2,5,6-Trichloro-3-formyl-1-(5-deoxy-β-D-ribofuranosyl)indole]",IC50,[1],32 µM
same,IC50,"[2]; Human betaherpesvirus 5, HFF",0.3 µM
same,IC50 at 48 h,[3],25 µM
same,IC50,[4]; [8],20 µM
"CC(=O)OC[C@H]1O[C@@H](n2c(Br)c(C=O)c3cc(Cl)c(Cl)cc32)[C@H](O)[C@@H]1O [Compound 4.136, 5,6-Dichloro-2-bromo-3-formyl-1-(5-O-acetyl-β-D-ribofuranosyl)indole]",IC50,[1],32 µM
same,IC50,"[2]; Human betaherpesvirus 5, HFF",0.3 µM
same,IC50 at 48 h,[3],40 µM
same,IC50,[4]; [8],15 µM
"CN(C)c1c(C#N)c2cc(Cl)c(Cl)cc2n1[C@@H]1O[C@H](CO)[C@@H](O)[C@H]1O [Compound 4.14, 5,6-Dichloro-2-dimethylamino-3-cyano-1-(β-D-ribofuranosyl)indole]",IC50,[1]; [9],100 µM
same,IC50,[2]; [10],17 µM
same,IC50 at 48 h,[3],90 µM
same,IC50,[4]; [11],> 100 µM
"CC(=O)OC[C@H]1O[C@@H](n2c(Cl)c(C(C)=O)c3cc(Cl)c(Cl)cc32)[C@H](O)[C@@H]1O [Compound 4.43, 2,5,6-Trichloro-3-acetyl-1-(5-O-acetyl-β-D-ribofuranosyl)indole]",antiviral activity,"[2]; virus not specified, HCMV and HSV-1 were used",comparable to the fully deprotected analog
"O=Cc1c(Cl)n([C@@H]2O[C@H](CO)[C@@H](O)[C@H]2O)c2cc(Cl)c(Cl)cc12 [Compound 4.3, 2,5,6-trichloro-3-formyl-1-(β-D-ribofuranosyl)indole]",IC50,"[5]; Chen thesis, read-out: IC50 against HCMV",0.23 µM
same,activity against HCMV,[5],even more active than TCRB
same,IC50,[1],45 µM
same,CC50,"uninfected host cells; Chen thesis, read-out: CC50 against uninfected host cells",45 µM
same,IC50,"[2]; Human betaherpesvirus 5, HFF",0.2 µM
same,IC50 at 48 h,[3],45 µM
same,selectivity index (calculated by dividing the CC50 by the IC50),[6],195
same,IC50,[4]; [8],40 µM
"COC(=N)c1c(Cl)n([C@@H]2O[C@H](CO)[C@@H](O)[C@H]2O)c2cc(Cl)c(Cl)cc12 [Compound 4.34, Methyl 2,5,6-Trichloro-1-(β-D-ribofuranosyl)indole-3-formimidate]",IC50,[1]; [9],100 µM
same,IC50,[2]; [10],0.4 µM
same,IC50 at 48 h,[3],90 µM
same,IC50,[4]; [11],70 µM
"OC[C@H]1O[C@@H](n2c(Cl)cc3cc(Cl)c(Cl)cc32)[C@H](O)[C@@H]1O [Compound 4.2, 2,5,6-trichloro-1-(β-D-ribofuranosyl)indole, reference compound]",activity against HCMV,[5],inactive
same,cytotoxicity,uninfected host cells; Chen et al.,non-cytotoxic
CC(C)Nc1nc2cc(Cl)c(Cl)cc2n1[C@H]1O[C@@H](CO)[C@H](O)[C@@H]1O [Compound 1263W94],activity against HCMV,[5],very active
"OC[C@H]1O[C@@H](n2c(Cl)nc3cc(Cl)c(Cl)cc32)[C@H](O)[C@@H]1O [TCRB, 2,5,6-trichloro-1-(β-D-ribofuranosyl)benzimidazole]",activity against HCMV,[5],potent and selective inhibitor
same,in vivo stability,[7],in vivo instability
